For data set [1] the following is noted: cited from earlier work.
A further data set deals with deoxycytidine deaminase. To be noted: background; cited from earlier work.
The test system of data set [2] is leukemia L-1210. To be noted: background; cited from earlier work.
The subject of data set [3] is leukemia L-1210. The experiment in a line: Antitumour activity in mice inoculated intraperitoneally with leukemia L-1210 (survival, T/C). It counts as in vivo, CDF-1 male mice. As to conditions: for response vs control in vivo at 100 mg/kg / response vs control in vivo at 200 mg/kg / response vs control in vivo at 400 mg/kg: Mus musculus, L1210, ip, directly after injection of L-1210, after 2 days and after 6 days; for response vs control in vivo at 100 mg/kg: 100 mg/kg i.p.; for response vs control in vivo at 200 mg/kg: 200 mg/kg i.p.; for response vs control in vivo at 400 mg/kg: 400 mg/kg i.p. On the procedure:
The antitumour activity for mice of the test material was evaluated by means of survival rate comparison, T/C (%), that is, 100 times the mean survival period of the groups injected with the test material divided by the mean survival period of the comparison groups which were not injected with the test material.
Further, for comparison, the following materials were also subjected to the same biological test: […]

Data set [4] can be described thus: Solubility test: solubility in water. It counts as physicochemical. An excerpt:
In the aforesaid examples, the products were obtained as white solids.
In Table 1, -Ara-C means "-1-β-D-arabinofuranosylcytosine" and -5'-Pna and -5'-PNa2 mean "-1-β-D-arabinofuranosylcytosine-5'-phosphate monosodium salt" and "-1-β-D-arabinofuranosylcytosine-5'-phosphate disodium salt," respectively.

Converted amounts (≈) assume the structure as drawn. Where a name gives a salt, the structure may show the parent alone. Read-outs that look alike come from different tables or passages of the source. Where only a bound is given, the exact number is not on record here.

Regarding `N=c1ccn2c(n1)O[C@H]1[C@H](O)[C@@H](CO)O[C@H]12` [2,2'-ANHYDROCYTOSINE ARABINOSIDE, 2,2'-anhydrocytosine arabinoside], in data set [1] (in vivo), the “Biological half life / excretion (in words)” value is listed as “the biological half life of this derivative is as short as that of cytosine arabinoside”. Moreover, in the data set with deoxycytidine deaminase, the “Deamination / resistance to deaminase (in words)” value is “SHOWS HIGH RESISTANCE TO THE DEAMINOSE”. Besides, in the data set on leukemia L-1210 [2], the “Antileukemial activity (in words)” value was “does not have antileukemial activity”.
For `Nc1ccn([C@@H]2O[C@H](CO)[C@@H](O)[C@@H]2O)c(=O)n1` [Ara-C, 1-β-D-arabinofuranosylcytosine], the “Biological half life / excretion (in words)” value in data set [1] (background) is given as “the biological half life of the medicament is short”. Also, in the data set with deoxycytidine deaminase, the “Deamination / resistance to deaminase (in words)” value is “readily converted into uracil arabinoside”. In the data set on leukemia L-1210 [3], this compound displayed a response vs control in vivo at 100 mg/kg of 127%, a response vs control in vivo at 200 mg/kg of 136% and a response vs control in vivo at 400 mg/kg of 164%. Further, the “Antileukemial activity (in words)” value in the data set with leukemia L-1210 [2] is on record as “one of the most effective known antileukemial agents”.
For the compound `O=C(Nc1ccn([C@@H]2O[C@H](COP(=O)(O)O)[C@@H](O)[C@@H]2O)c(=O)n1)C12CC3CC(CC(C3)C1)C2` [N^4 -Adamantoyl-5'-PNa2], in data set [4], the Solubility in water was > 10000 µg/mL.
On the same count and under the same terms, as for `O=C(Nc1ccn([C@@H]2O[C@H](COP(=O)(O)O)[C@@H](O)[C@@H]2O)c(=O)n1)C12CC3CC(CC(C3)C1)C2` [N^4 -Adamantoyl-5'-PNa, N^4-adamantoyl-1-β-D-arabinofuranosylcytosine-5'-phosphate monosodium], the figure is 2000 µg/mL.
One may read the solubility as the concentration that dissolves in the medium under given conditions. The low end stands for a poorly soluble substance, the high end for a readily soluble substance. For `O=C(Nc1ccn([C@@H]2O[C@H](CO)[C@@H](O)[C@@H]2O)c(=O)n1)C12CC3CC(CC(C3)C1)C2` [N^4 -Adamantoyl-Ara-C], the solubility in data set [4] was determined as 10 µg/mL (≈ 24.7 µM).
For `CCCCCCCCCCCCCCCCC(=O)Nc1ccn([C@@H]2O[C@H](COP(=O)(O)O)[C@@H](O)[C@@H]2O)c(=O)n1` [N^4 -Margaroyl-5'-PNa2], the Solubility in water in data set [4] was > 50000 µg/mL.
With `CCCCCCCCCCCCCCCCC(=O)Nc1ccn([C@@H]2O[C@H](COP(=O)(O)O)[C@@H](O)[C@@H]2O)c(=O)n1` [N^4 -Margaroyl-5'-PNa, N^4-margaroyl-1-β-D-arabinofuranosylcytosine-5'-phosphate monosodium], the Solubility in water in data set [4] was > 10000 µg/mL. Further, in the data set on leukemia L-1210 [3], the response vs control in vivo at 100 mg/kg was > 395%, the response vs control in vivo at 200 mg/kg was > 382% and the response vs control in vivo at 400 mg/kg was determined as 101%.
For the compound `CCCCCCCCCCCCCCCCC(=O)Nc1ccn([C@@H]2O[C@H](CO)[C@@H](O)[C@@H]2O)c(=O)n1` [N^4 -Margaroyl-Ara-C], the solubility in data set [4] is < 10 µg/mL. Further, in the data set with leukemia L-1210 [3], the response vs control in vivo at 100 mg/kg is > 397%, the response vs control in vivo at 200 mg/kg stood at 188% and the response vs control in vivo at 400 mg/kg came to 99%.
In the case of `CCCCCCCCCCCCCCCCCCCCCCCCCCCC(=O)Nc1ccn([C@@H]2O[C@H](COP(=O)(O)O)[C@@H](O)[C@@H]2O)c(=O)n1` [N^4 -Montanoyl-5'-PNa2], the Solubility in water in data set [4] was > 5000 µg/mL.
As to `CCCCCCCCCCCCCCCCCCCCCCCCCCCC(=O)Nc1ccn([C@@H]2O[C@H](COP(=O)(O)O)[C@@H](O)[C@@H]2O)c(=O)n1` [N^4 -Montanoyl-5'-PNa, N^4-montanoyl-1-β-D-arabinofuranosylcytosine-5'-phosphate monosodium], the Solubility in water in data set [4] amounted to 1000 µg/mL.
As to `CCCCCCCCCCCCCCCCCCCCCCCCCCCC(=O)Nc1ccn([C@@H]2O[C@H](CO)[C@@H](O)[C@@H]2O)c(=O)n1` [N^4 -Montanoyl-Ara-C], the solubility in data set [4] was < 10 µg/mL.
With `CCCCCCCC/C=C\CCCCCCCC(=O)Nc1ccn([C@@H]2O[C@H](COP(=O)(O)O)[C@@H](O)[C@@H]2O)c(=O)n1` [N^4 -Oleoyl-5'-PNa2], in data set [4], the Solubility in water was > 250000 µg/mL.
Take `CCCCCCCC/C=C\CCCCCCCC(=O)Nc1ccn([C@@H]2O[C@H](COP(=O)(O)O)[C@@H](O)[C@@H]2O)c(=O)n1` [N^4 -Oleoyl-5'-PNa, N^4-oleoyl-1-β-D-arabinofuranosylcytosine-5'-phosphate monosodium]: in data set [4], the Solubility in water is > 50000 µg/mL. In the data set with leukemia L-1210 [3], this compound came in with a response vs control in vivo at 100 mg/kg of 270%, a response vs control in vivo at 200 mg/kg of 156% and a response vs control in vivo at 400 mg/kg of 103%.
Regarding `CCCCCCCC/C=C\CCCCCCCC(=O)Nc1ccn([C@@H]2O[C@H](CO)[C@@H](O)[C@@H]2O)c(=O)n1` [N^4 -Oleoyl-Ara-C], in data set [4], the concentration in solution (solubility) came to 50 µg/mL (≈ 98.5 µM). In the data set on leukemia L-1210 [3], this compound showed a response vs control in vivo at 100 mg/kg of 261%, a response vs control in vivo at 200 mg/kg of 135% and a response vs control in vivo at 400 mg/kg of 94%.
Turning to `CCCCCCCCCCCCCCCC(=O)Nc1ccn([C@@H]2O[C@H](COP(=O)(O)O)[C@@H](O)[C@@H]2O)c(=O)n1` [N^4 -Palmitoyl-5'-PNa2], in data set [4], the Solubility in water is > 150000 µg/mL.
As for `CCCCCCCCCCCCCCCC(=O)Nc1ccn([C@@H]2O[C@H](COP(=O)(O)O)[C@@H](O)[C@@H]2O)c(=O)n1` [N^4 -Palmitoyl-5'-PNa, N^4-palmitoyl-1-β-D-arabinofuranosylcytosine-5'-phosphate monosodium], the Solubility in water in data set [4] was > 30000 µg/mL. In the data set on leukemia L-1210 [3], the response vs control in vivo at 100 mg/kg is > 349%, the response vs control in vivo at 200 mg/kg is > 342% and the response vs control in vivo at 400 mg/kg came to 98%.
For the compound `CCCCCCCCCCCCCCCC(=O)Nc1ccn([C@@H]2O[C@H](CO)[C@@H](O)[C@@H]2O)c(=O)n1` [N^4 -Palmitoyl-Ara-C, N^4-palmitoyl-1-β-D-arabinofuranosylcytosine], the concentration in solution in data set [4] (solubility) was 10 µg/mL (≈ 20.8 µM). Also, in the data set on leukemia L-1210 [3], the response vs control in vivo at 100 mg/kg is > 346%, the response vs control in vivo at 200 mg/kg was determined as 83% and the response vs control in vivo at 400 mg/kg amounted to 78%.
For `CCCCCCCCCCCCCCCCCC(=O)Nc1ccn([C@@H]2O[C@H](COP(=O)(O)O)[C@@H](O)[C@@H]2O)c(=O)n1` [N^4 -Stearoyl-5'-PNa2, N^4-stearoyl-1-β-D-arabinofuranosylcytosine-5'-phosphate disodium salt], the Solubility in water in data set [4] (disodium salt) was > 50000 µg/mL.
Consider `CCCCCCCCCCCCCCCCCC(=O)Nc1ccn([C@@H]2O[C@H](COP(=O)(O)O)[C@@H](O)[C@@H]2O)c(=O)n1` [N^4 -Stearoyl-5'-PNa, N^4-stearoyl-1-β-D-arabinofuranosylcytosine-5'-phosphate monosodium salt], for which, in data set [4] (monosodium salt), the Solubility in water is > 10000 µg/mL. Besides, in the data set on leukemia L-1210 [3], the response vs control in vivo at 100 mg/kg is > 363%, the response vs control in vivo at 200 mg/kg is > 338% and the response vs control in vivo at 400 mg/kg amounted to 104%.
Turning to `CCCCCCCCCCCCCCCCCC(=O)Nc1ccn([C@@H]2O[C@H](CO)[C@@H](O)[C@@H]2O)c(=O)n1` [N^4 -Stearoyl-Ara-C, N^4-stearoyl-1-β-D-arabinofuranosylcytosine], the solubility in data set [4] is < 10 µg/mL. Also, in the data set on leukemia L-1210 [3], the response vs control in vivo at 100 mg/kg is > 274%, the response vs control in vivo at 200 mg/kg came to 123% and the response vs control in vivo at 400 mg/kg was 111%.
For the compound `CCCCCCCCCCCCCCCCCC(=O)Nc1ccn([C@@H]2O[C@H](COP(=O)(O)O)[C@@H](O)[C@@H]2O)c(=O)n1` [N^4-stearoyl-1-β-D-arabinofuranosylcytosine-5'-phosphate], in the data set on leukemia L-1210 [3] (L-1210 in mice, conclusions in words), the “Antileukemial effect on mice (in words)” value is on record as “had the highest antileukemial effect on mice”.
In the data set with leukemia L-1210 [3], `CCCCCCCCCCCCCCCCCC(=O)Nc1ccn([C@@H]2O[C@H](CO)[C@@H](OP(=O)(O)O)[C@@H]2OP(=O)(O)O)c(=O)n1` [N^4-stearoyl-Ara-C-2',3'-(PNa)2] showed a response vs control in vivo at 100 mg/kg of 184%, a response vs control in vivo at 200 mg/kg of 119% and a response vs control in vivo at 400 mg/kg of 103%.
For the compound `CCCCCCCCCCCCCCCCCC(=O)Nc1ccn([C@@H]2O[C@H](CO)[C@@H](O)[C@@H]2OP(=O)(O)O)c(=O)n1` [N^4-stearoyl-Ara-C-2'-PNa, N^4-stearoyl-1-β-D-arabinofuranosylcytosine-2'-phosphate monosodium salt], in the data set with leukemia L-1210 [3], the response vs control in vivo at 100 mg/kg was determined as 228%, the response vs control in vivo at 200 mg/kg was determined as 146% and the response vs control in vivo at 400 mg/kg stood at 121%.
In the case of `CCCCCCCCCCCCCCCCCC(=O)Nc1ccn([C@@H]2O[C@H](COP(=O)(O)O)[C@@H](OP(=O)(O)O)[C@@H]2O)c(=O)n1` [N^4-stearoyl-Ara-C-3',5'-(PNa)2], in the data set with leukemia L-1210 [3], the response vs control in vivo at 100 mg/kg turned out to be 215%, the response vs control in vivo at 200 mg/kg is 138% and the response vs control in vivo at 400 mg/kg came out at 107%.
For `CCCCCCCCCCCCCCCCCC(=O)Nc1ccn([C@@H]2O[C@H](CO)[C@@H](OP(=O)(O)O)[C@@H]2O)c(=O)n1` [N^4-stearoyl-Ara-C-3'-PNa], in that order: 286%, 219% and 112%.
With `O=c1ccn([C@@H]2O[C@H](CO)[C@@H](O)[C@@H]2O)c(=O)[nH]1` [uracil arabinoside], the “Antileukemial activity (in words)” value in the data set with leukemia L-1210 [2] is recorded as “possesses no antileukemial activity”.
